Data from ChEMBL document CHEMBL3603797, “Factors that influence T box riboswitch efficacy and tRNA affinity” (Bioorg Med Chem, 2015).
Calls of active or inactive are those of the source. The calls are words filed in the database; no cut-off is given here.

How the values were obtained:
[1] = Binding affinity to Bacillus subtilis glyQS T box riboswitch mRNA assessed as inhibition of tRNAgly-induced glyQS transcription readthrough after 3 hrs by fluorescence assay
[2] = Inhibition of readthrough probe 5'Cy5-CGCAccuccacuuuucuuucauaaTGCG-Dabcyl3' binding to 5'UUAUGAAAGAAAAGUGGAGGUGC3' RNA (unknown origin) by fluorescence assay

IC50 [1]: 8 µM
inhibition [2]: inactive
SMILES: CN(CCCc1ccccc1)Cc1cn(CC(O)COC(=O)NCc2ccccc2)nn1 (configuration not stated)
